Laboratory results taken from patent EP4745134A1 (Jiangsu Yahong Meditech Co., Ltd., priority 2023, dated 2025).
Where two headings read alike, the source gives them in different places.

Key:
[1] = test system: HCT116 MTAP KO cells; assay: Inhibitory activity against cell proliferation (CellTiter Glo, 6 days), HCT116 MTAP KO; assay type: cell-based; conditions: for IC50: HCT116 MTAP KO cells, 6 days, CellTiter Glo, read-out: HCT116 MTAP KO IC50; for Selectivity HCT 116-WT/ HCT116 MTAP KO: ratio of IC50 HCT116-WT / HCT116 MTAP KO
In short: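 Viability IC50s come from CellTiter Glo luminescence after 6 days' exposure to compound (8 concentrations, 4-fold steps, top 10000 nM), relative to DMSO wells. Cells were MTAP-KO or WT HCT116, seeded at 250 per well in McCoy's 5A with 10% FBS and incubated overnight before dosing.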

[2] = test system: HCT116-WT cells; assay: Inhibitory activity against cell proliferation (CellTiter Glo, 6 days), HCT116-WT; assay type: cell-based; conditions: HCT116-WT cells, 6 days, CellTiter Glo, read-out: HCT116-WT IC50
Experimental: HCT116-WT (ATCC, CCL-247) and HCT116 MTAP KO (Nanjing Cobioer, CBP75002) cells were seeded into white low-transparency sterile 96-well cell culture plates at a density of 250 cells per well respectively, and the culture medium was McCoy's 5A Medium+10% FBS. The plates were placed under the condition of 37°C and 5% CO2 to be cultured overnight. The cells were treated with 4-fold serially diluted compounds of 8 concentration points starting at an initial concentration of 10000 nM, and the last two columns were used as control wells to which only DMSO was added. The drug-treated cells were further cultured for 6 days. On day 7, CellTiter Glo® reagent was added at 50 uL per well, and after reaction under shaking for 10 minutes at room temperature, the chemiluminescence signals were detected for the well plates through the chemiluminescence detection method using a BIOTEK H1 multifunctional microplate-reader. The IC50 values for inhibition of the compounds on cell viability were calculated in X1fit 5.0 software. Table 2. IC50 values for inhibition of the compounds on HCT116 MTAP KO/WT cell growth

IC50 ([1]; Homo sapiens, HCT-116, 144 h) [nM] | IC50 ([2]; 144 h) [nM] | Compound | Selectivity HCT 116-WT/ HCT116 MTAP KO [1] | IC50 [1] [nM] | IC50 [2] [nM]
131 | 3390 | Cc1cc2cc(C(=O)N(Cc3ccc(-c4cnoc4)cn3)N(C)c3ncccn3)ccc2nc1N [Example 182, 2-amino-N-((5-(isoxazol-4-yl)pyridin-2-yl)methyl)-N',3-dimethyl-N'-(pyrimidin-2-yl)quinoline-6-carbohydrazide] | 25.89 |  | 
257 | 4230 | Cc1cc2cc(C(=O)N(Cc3ccc(-c4cn(C)cn4)cn3)N(C)c3ncccn3)ccc2nc1N [Example 194, 2-amino-N',3-dimethyl-N-((5-(1-methyl-1H-imidazol-4-yl)pyridin-2-yl)methyl)-N '-(pyrimidin-2-yl)quinoline-6-carbohydrazide] | 16.46 |  | 
216 | 3140 | Cc1cc2cc(C(=O)N(Cc3ccc4sc(C5=CCN(C)CC5)nc4c3)N(C)c3ncccn3)ccc2nc1N [Example 195, 2-amino-N',3-dimethyl-N-((2-(1-methyl-1,2,3,6-tetrahydropyridin-4-yl)benzo[d]thiazol-5-yl)methyl)-N'-(pyrimidin-2-yl)qui noline-6-carbohydrazide] | 14.53 |  | 
 |  | Cc1cc2cc(C(=O)N(Cc3ccc(-c4cnc5c(cnn5C)c4)cn3)N(C)c3ncccn3)ccc2nc1N [Example 198, 2-amino-N',3-dimethyl-N-((5-(1-methyl-1H-pyrazolo[3,4-b]pyridin-5-yl)pyridin-2-yl)methyl)-N'-(pyrimidin-2-yl)quinoline-6-carbohydrazide] | 26.09 | 32 | 835
14 | 396 | Cc1cc2cc(C(=O)N(Cc3ccc(-c4cncs4)cn3)N(C)c3ncccn3)ccc2nc1N [Example 204, 2-amino-N',3-dimethyl-N'-(pyrimidin-2-yl)-N-((5-(thiazol-5-yl)pyridin-2-yl)methyl)quinoline-6-carbohydrazide] | 28.29 |  | 
58 | 1170 | Cc1cc2cc(C(=O)N(Cc3ccc(-c4cnn(C(C)(C)C)c4)cn3)N(C)c3ncccn3)ccc2nc1N [Example 205, 2-amino-N-((5-(1-(tert-butyl)-1H-pyrazol-4-yl)pyridin-2-yl)methyl)-N',3-dimethyl-N'-(pyrimidin-2-yl)quinoline-6-carbohydr azide] | 20.14 |  | 
18 | 921 | CCn1cc(-c2ccc(CN(C(=O)c3ccc4nc(N)c(C)cc4c3)N(C)c3ncccn3)nc2)cn1 [Example 206, 2-amino-N-((5-(1-ethyl-1H-pyrazol-4-yl)pyridin-2-yl)methyl)-N',3-dimethyl-N'-(pyrimidin-2-yl)quinoline-6-carbohydrazide] | 51.17 |  | 
26 | 488 | Cc1cc2cc(C(=O)N(Cc3ccc(-c4ccc(N5CCNCC5)nc4)cn3)N(C)c3ncccn3)ccc2nc1N [Example 207, 2-amino-N',3-dimethyl-N-((6'-(piperazin-1-yl)-[3,3'-bipyridine]-6-yl)methyl)-N'-(pyrimidin-2-yl)quinoline-6-carbohydrazide] | 18.77 |  | 
26 | 716 | Cc1cc2cc(C(=O)N(Cc3ccc(-c4ccn(C)c(=O)c4)cn3)N(C)c3ncccn3)ccc2nc1N [Example 209, 2-amino-N',3-dimethyl-N-((1'-methyl-2'-oxo-1',2'-dihydro-[3,4'-bipyridine]-6-yl)methyl)-N'-(pyrimidin-2-yl)quinoline-6-car bohydrazide] | 27.54 |  | 
25 | 492 | Cc1cc2cc(C(=O)N(Cc3ccc(-c4ccns4)cn3)N(C)c3ncccn3)ccc2nc1N [Example 210, 2-amino-N-((5-(isothiazol-5-yl)pyridin-2-yl)methyl)-N',3-dimethyl-N'-(pyrimidin-2-yl)quinoline-6-carbohydrazide] | 19.68 |  | 
30 | 646 | Cc1cc2cc(C(=O)N(Cc3ccc(-c4ccc(N(C)C)nc4)cn3)N(C)c3ncccn3)ccc2nc1N [Example 212, 2-amino-N-((6'-(dimethylamino)-[3,3'-bipyridine]-6-yl)methyl)-N',3-dimethyl-N'-(pyrimidin-2-yl)quinoline-6-carbohydrazide] | 21.53 |  | 
 |  | Cc1cc2cc(C(=O)N(Cc3ccc(-c4cnn(C(F)F)c4)cn3)N(C)c3ncccn3)ccc2nc1N [Example 213, 2-amino-N-((5-(1-(difluoromethyl)-1H-pyrazol-4-yl)pyridin-2-yl)methyl)-N',3-di methyl-N'-(pyrimidin-2-yl)quinoline-6-c arbohydrazide] | 22.13 | 39 | 863
29 | 694 | Cc1cc2cc(C(=O)N(Cc3ccc(-c4cccs4)cn3)N(C)c3ncccn3)ccc2nc1N [Example 214, 2-amino-N',3-dimethyl-N'-(pyrimidin-2-yl)-N-((5-(thien-2-yl)pyridin-2-yl)methyl) quinoline-6-carbohydrazide] | 23.93 |  | 
216 | 3140 | Cc1cc2cc(C(=O)N(Cc3ccc4sc(C5CCN(C)CC5)nc4c3)N(C)c3ncccn3)ccc2nc1N [Example 219] | 14.53 |  | 
140 | 3420 | Cc1csc(-c2ccc(CN(C(=O)c3ccc4nc(N)c(C)cc4c3)N(C)c3ncccn3)nc2)n1 [Example 227, 2-amino-N',3-dimethyl-N-((5-(4-methylthiazol-2-yl)pyridin-2-yl)methyl)-N'-(pyrimidin-2-yl)quinoline-6-carbohydrazide] | 24.44 |  | 
51 | 1320 | Cc1cc2cc(C(=O)N(Cc3ccc(-c4cnn(C)n4)cn3)N(C)c3ncccn3)ccc2nc1N [Example 228, 2-amino-N',3-dimethyl-N-((5-(2-methyl-2H-1,2,3-triazol-4-yl)pyridin-2-yl)methyl)-N'-(pyrimidin-2-yl)quinoline-6-carbohy drazide] | 25.92 |  | 
27 | 279 | Cc1cc2cc(C(=O)N(Cc3ccc(-c4nc(C#N)cs4)cn3)N(C)c3ncccn3)ccc2nc1N [Example 230, 2-amino-N-((5-(4-cyanothiazol-2-yl)pyridin-2-yl)methyl)-N',3-dimethyl-N'-(pyrimidin-2-yl)quinoline-6-carbohydrazide] | 10.33 |  | 
212 | 2700 | Cc1cc2cc(C(=O)N(Cc3ccc(-c4nnn(C)n4)cn3)N(C)c3ncccn3)ccc2nc1N [Example 231, 2-amino-N',3-dimethyl-N-((5-(2-methyl-2H-tetrazol-5-yl)pyridin-2-yl)methyl)-N'-(pyrimidin-2-yl)quinoline-6-carbohydrazide] | 12.71 |  | 
20 | 750 | Cc1cc2cc(C(=O)N(Cc3ccc(-c4nccs4)cn3)N(C)c3ncccn3)ccc2nc1N [Example 234, 2-amino-N',3-dimethyl-N'-(pyrimidin-2-yl)-N-((5-(thiazol-2-yl)pyridin-2-yl)methyl)quinoline-6-carbohydrazide] | 37.50 |  | 
18 | 482 | Cc1cc2cc(C(=O)N(Cc3ccc(-c4ccc(N(C)CCO)nc4)cn3)N(C)c3ncccn3)ccc2nc1N [Example 246, 2-amino-N-((6'-((2-hydroxyethyl) (methyl)amino)-[3,3'-bipyridine]-6-yl)methyl)-N',3-dimethyl-N'-(pyrimidin-2-yl)quinoline-6-carbohydrazide] | 26.78 |  | 
3.9 | 63 | CN(c1ncccn1)N(Cc1ccc(-c2cnn(C(F)(F)F)c2)cn1)C(=O)c1ccc2nc(N)c3cnn(C)c3c2c1 [Example 248, 4-amino-N',1-dimethyl-N'-(pyrimidin-2-yl)-N-((5-(1-(trifluoromethyl)-1H-pyrazol-4-yl)pyridin-2-yl)methyl)-1H-pyrazolo[4,3-c]quinoline-8-carbohydrazide] | 16.15 |  | 

Compound | IC50 ([1]; Homo sapiens, HCT-116, 144 h) [nM] | IC50 ([2]; 144 h) [nM] | Selectivity HCT 116-WT/ HCT116 MTAP KO [1] | IC50 [1] [nM] | IC50 [2] [nM]
Cc1cc2cc(C(=O)N(Cc3ccc(-c4cnc5c(cnn5C)c4)cn3)N(C)c3ncccn3)ccc2nc1N [Example 190, 2-amino-N',3-dimethyl-N-((5-(1-methyl-1H-pyrazolo[3,4-b]pyridin-5-yl)pyridin-2-yl)methyl)-N'-(pyrimidin-2-yl)quinoline-6-carbohydrazide] | 32 | 835 | 26.09 |  | 
